A short description of data set [1]: Metabolic Stability assay, rat liver microsomes. It is filed as in vitro ADME. The procedure:
Metabolic Stability assay: The metabolic stability was determined by adding compound dissolved in DMSO to human or rat, liver microsomes. Briefly, assays were run with a starting concentration of 1 μM test article. The reaction was started by addition of NADPH regeneration components at 37° C. at which time an aliquot was immediately quenched in ice-cold acetonitrile/MeOH/H2O solution. Reaction mixture was incubated at 37° C. on a shaker, and additional aliquots were taken at 7, 15, 30 and 60 minutes. Following quench and centrifugation, samples were analyzed on HPLC/MS/MS.
On the technique in general: Liver microsomes are a subcellular fraction often used to study metabolism.

In the next data set the target is hTRPV3 (Homo sapiens (Human), UniProt Q8NET8). Nature of the data set: Whole-cell patch clamp, hTRPV3 Phase 1 / Phase 2 currents. It is filed as cell-based. The gist of the method:
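Currents are activated by 20 μM 2-APB or by perfusate at 28 °C or warmer, in Ringer's solution, and quantified at ±80 mV.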
On the technique in general: The patch-clamp technique gives a direct electrical read-out from membranes.

The nature of data set [2]: Aqueous solubility assay in Normal Ringer Solution. The note with it: Normal Ringer Solution; for solubility at 40 min: saline or isotonic, kinetic from dmso stock; for Solubility Ringer (nM): room temperature. The procedure:
Following vortex and incubation for a sufficient time (e.g. 40 minutes at room temperature), solutions were filtered, quenched with acetonitrile, and analyzed by Liquid Chromotography. Solubility Limits were determined by comparison to a standard curve.

[3] abbreviates: Phase 1 current, human TRPV3, read-out: hTRPV3 (nM) Phase 1.
[4] abbreviates: Phase 1 current, inward, whole-cell patch clamp, read-out: hTRPV3 Patch P1 Inwd.
[5] abbreviates: Phase 1 current, read-out: hTRPV3 (nM) (Phase 1).
Where [6] appears, read: Phase 2 current, inward, whole-cell patch clamp, read-out: hTRPV3 Patch P2 Inwd.
Where [7] appears, read: Phase 2 current, read-out: hTRPV3 (nM) (Phase 2).

Results on 21 compounds are retold here after patent US12435061B2 (priority 2020, dated 2025).

Values after ≈ are worked out from the molar mass of the structure shown. Read-outs that look alike come from different tables or passages of the source.

Chain of hTRPV3 (Q8NET8 whole entry): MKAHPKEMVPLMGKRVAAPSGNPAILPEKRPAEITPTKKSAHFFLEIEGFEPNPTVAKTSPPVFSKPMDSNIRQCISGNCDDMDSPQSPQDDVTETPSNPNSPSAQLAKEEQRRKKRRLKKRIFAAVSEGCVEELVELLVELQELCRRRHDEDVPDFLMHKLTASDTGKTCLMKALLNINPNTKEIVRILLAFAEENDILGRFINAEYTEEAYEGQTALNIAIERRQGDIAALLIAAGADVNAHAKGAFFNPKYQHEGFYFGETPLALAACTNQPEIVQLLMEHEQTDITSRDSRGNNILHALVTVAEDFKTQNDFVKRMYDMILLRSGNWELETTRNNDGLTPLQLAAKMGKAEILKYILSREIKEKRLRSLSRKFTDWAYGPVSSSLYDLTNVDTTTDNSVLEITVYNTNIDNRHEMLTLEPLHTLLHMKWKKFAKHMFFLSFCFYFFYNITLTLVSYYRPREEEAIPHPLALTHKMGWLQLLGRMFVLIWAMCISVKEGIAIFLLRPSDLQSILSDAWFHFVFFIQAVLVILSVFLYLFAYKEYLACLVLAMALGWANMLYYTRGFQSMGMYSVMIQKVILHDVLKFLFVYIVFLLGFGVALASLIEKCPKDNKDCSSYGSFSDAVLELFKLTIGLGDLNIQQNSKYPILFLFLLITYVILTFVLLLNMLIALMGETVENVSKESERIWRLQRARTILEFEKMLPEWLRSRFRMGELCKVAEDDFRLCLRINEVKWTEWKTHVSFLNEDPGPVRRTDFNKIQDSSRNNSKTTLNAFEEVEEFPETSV

`Cc1cccc(C(=O)N2CCC(c3ccc(Oc4ccccc4C(C)C)cc3C(N)=O)C2)n1` (centres unmarked) [Compound 2-33, 5-(2-isopropylphenoxy)-2-(1-(6-methylpicolinoyl)pyrrolidin-3-yl)benzamide]: the half-life at 1 μM in data set [1] (read-out: LM T1/2 (min) rat) was 11 min. In addition, the values for the IC50 on hTRPV3 (setting [3]) and at hTRPV3 (setting [4]) were 645 nM and 100 to 1000 nM, respectively.
The like results for `CC(C)c1ccccc1Oc1ccc(C2CCN(C(=O)c3ccc(Cl)cn3)C2)c(C(N)=O)c1` (centres unmarked) [Compound 2-32, 2-(1-(5-chloropicolinoyl)pyrrolidin-3-yl)-5-(2-isopropylphenoxy)benzamide] were, in that order, 6.86 min, 677 nM and 100 to 1000 nM.
The matching figures for `Cc1cccnc1C(=O)N1CCC(c2ccc(Oc3ccccc3C(C)C)cc2CO)C1` (centres unmarked) [Compound 2-18, (3-(2-(hydroxymethyl)-4-(2-isopropylphenoxy)phenyl)pyrrolidin-1-yl)(3-methylpyridin-2-yl)methanone]: 7.81 min, 314 nM and 100 to 1000 nM.
On to `CCc1cc(F)ccc1Oc1ccc(N2CC[C@H](Oc3ccccn3)C2)c(CO)c1` [Compound 1-330], for which the half-life at 1 μM in data set [1] (read-out: LM T1/2 (min) (rat)) was 24.8 min. Moreover, the IC50 at hTRPV3 (setting [4]) was 10 to 100 nM; on hTRPV3 (setting [5]), 49.5 nM; at hTRPV3 (setting [6]) it was 10 to 100 nM; on hTRPV3 (setting [7]), 56.6 nM.
For `CCc1ccccc1-c1ccc(C2CCN(C(=O)c3ccccn3)C2)c(CO)c1` (centres unmarked) [Compound 2-27, (3-(2′-ethyl-3-(hydroxymethyl)biphenyl-4-yl)pyrrolidin-1-yl)(pyridin-2-yl)methanone], the half-life at 1 μM in data set [1] (read-out: LM T1/2 (min) rat) was found to be 12.9 min. For the same compound, the IC50 is 73 nM at hTRPV3 (setting [3]) and 10 to 100 nM at hTRPV3 (setting [4]).
`CC(C)c1ccccc1Oc1ccc(C2CCN(C(=O)Cc3ccccn3)C2)c(CO)c1` (centres unmarked) [Compound 2-116]: the half-life at 1 μM in data set [1] (read-out: LM T1/2 (min) rat) was found to be 3.62 min. For the same compound, the IC50 at hTRPV3 (setting [3]) was roughly 3500 nM; at hTRPV3 (Phase 2 current, human TRPV3, read-out: hTRPV3 (nM) Phase 2), 2600 nM.
A word on the solubility: it is how much of the substance goes into solution per volume. Low values mean little dissolved substance, high ones much dissolved substance. In data set [2], `OCc1cc(Oc2ccccc2Cl)ccc1N1CC[C@H](Nc2ncccc2Cl)C1` [Compound 1-382, (S)-(5-(2-chlorophenoxy)-2-(3-(3-chloropyridin-2-ylamino)pyrrolidin-1-yl)phenyl)methanol] yielded a solubility at 40 min of 0.5 µM (≈ 0.215 µg/mL). Further, the IC50 at hTRPV3 (setting [4]) was 10 to 100 nM; at hTRPV3 (setting [5]), 30.9 nM.
With `OCc1cc(Oc2ccc(Cl)cc2)ccc1N1CC[C@H](Oc2ncccc2Cl)C1` [Compound 1-249, (S)-(5-(4-chlorophenoxy)-2-(3-(3-chloropyridin-2-yloxy)pyrrolidin-1-yl)phenyl)methanol], the “Solubility Ringer (nM)” value in data set [2] is “BLQ”. In addition, the IC50 on hTRPV3 (setting [4]) is 10 to 100 nM; at hTRPV3 (setting [5]) it was 22.1 nM.
With `CC(C)Oc1ccccc1N1CC[C@H](Oc2ccc3cc(Cl)ccc3n2)C1` [Compound 1-76, (S)-6-chloro-2-(1-(2-isopropoxyphenyl)pyrrolidin-3-yloxy)quinoline], the “Solubility Ringer (nM)” value in data set [2] is on record as “BLQ”. The IC50 on hTRPV3 (setting [4]) is greater than 1000 nM; at hTRPV3 (setting [5]), greater than 3200 nM; at hTRPV3 (setting [6]), greater than 1000 nM; at hTRPV3 (setting [7]), roughly 4600 nM.
For `Cc1ccc(Oc2ccc(N3CC[C@H](Oc4ncccc4Cl)C3)c(CO)c2)cc1` [Compound 1-250, (S)-(2-(3-(3-chloropyridin-2-yloxy)pyrrolidin-1-yl)-5-(p-tolyloxy)phenyl)methanol], the solubility at 40 min in data set [2] is roughly 0.1 µM (≈ 0.0411 µg/mL). Further, the IC50 on hTRPV3 (setting [4]) is less than 10 nM; at hTRPV3 (setting [5]) it was 8.42 nM.
Take `CC(C)(C)OC(=O)N1CC=C(c2ccc(N3CC[C@H](Oc4ccc(C(F)(F)F)cn4)C3)c(CO)c2)CC1` [Compound 1-272, (S)-tert-butyl 4-(3-(hydroxymethyl)-4-(3-(5-(trifluoromethyl)pyridin-2-yloxy)pyrrolidin-1-yl)phenyl)-5,6-dihydropyridine-1 (2H)-carboxylate]: the “Solubility Ringer (nM)” value in data set [2] was “BLQ”. The results for the IC50 on hTRPV3 (setting [4]) and at hTRPV3 (setting [5]) were greater than 1000 nM and greater than 3200 nM, respectively.
The compound `N#Cc1ccccc1-c1ccc(N2CC[C@H](Oc3ccc(C(F)(F)F)cn3)C2)c(CO)n1` [Compound 1-197, (S)-2-(6-(hydroxymethyl)-5-(3-(5-(trifluoromethyl)pyridin-2-yloxy)pyrrolidin-1-yl)pyridin-2-yl)benzonitrile] displayed a solubility at 40 min in data set [2] of roughly 0.4 µM (≈ 0.176 µg/mL). The IC50 on hTRPV3 (setting [4]) was 10 to 100 nM; at hTRPV3 (setting [5]) it was roughly 38.5 nM.
In data set [2], `COc1ccccc1Oc1ccc(N2CC[C@H](Oc3ncccc3C)C2)c(CO)c1` [Compound 1-340, (S)-(5-(2-methoxyphenoxy)-2-(3-(3-methylpyridin-2-yloxy)pyrrolidin-1-yl)phenyl)methanol] gave a solubility at 40 min of roughly 2.4 µM (≈ 0.976 µg/mL). Moreover, the IC50 at hTRPV3 (setting [4]) is 10 to 100 nM; on hTRPV3 (setting [5]), 70.1 nM; on hTRPV3 (setting [6]), 10 to 100 nM; on hTRPV3 (setting [7]), 74.4 nM.
In turn, `OC[C@@H]1C[C@@H](Oc2ccc(C(F)(F)F)cn2)CN1c1ccc(-c2ccccc2)cc1` [Compound 1-175] displayed a solubility at 40 min in data set [2] of roughly 0.68 µM (≈ 0.282 µg/mL). In addition, the IC50 on hTRPV3 (setting [4]) was greater than 1000 nM; on hTRPV3 (setting [5]), greater than 3200 nM; at hTRPV3 (setting [6]) it was greater than 1000 nM; at hTRPV3 (setting [7]), greater than 3200 nM.
As to `NC(=O)c1cc(-c2cccnc2)ccc1N1CC[C@H](Oc2ccc(C(F)(F)F)cn2)C1` [Compound 1-80, (S)-5-(pyridin-3-yl)-2-(3-(5-(trifluoromethyl)pyridin-2-yloxy)pyrrolidin-1-yl)benzamide], the solubility at 40 min in data set [2] was greater than 3.3 µM. The IC50 is greater than 1000 nM at hTRPV3 (setting [4]), greater than 3200 nM on hTRPV3 (setting [5]), greater than 1000 nM at hTRPV3 (setting [6]) and roughly 5900 nM on hTRPV3 (setting [7]).
As for `N#Cc1ccc(O[C@H]2CCN(c3ccc(-c4ccccc4)cc3CO)C2)nc1` [Compound 1-143, (S)-6-(1-(3-(hydroxymethyl)biphenyl-4-yl)pyrrolidin-3-yloxy)nicotinonitrile], in data set [2], the solubility at 40 min is 1.4 µM (≈ 0.52 µg/mL). The figures for the IC50 on hTRPV3 (setting [4]) and at hTRPV3 (setting [5]) were 100 to 1000 nM and 337 nM, respectively.
On to `NS(=O)(=O)c1cc(-c2ccccc2)ccc1N1CC[C@@H](Oc2ccc(C(F)(F)F)cn2)C1` [Compound 1-102], for which the solubility at 40 min in data set [2] is roughly 0.23 µM (≈ 0.107 µg/mL). Further, the IC50 at hTRPV3 (setting [4]) and at hTRPV3 (setting [6]) was greater than 1000 nM in each case.
Turning to `Cc1ccc(C(=O)N2CCC(c3ccc(-c4ccccc4C(C)C)cc3CO)C2)nc1` (centres unmarked) [Compound 2-79], the solubility at 40 min in data set [2] amounted to 7.38 µM (≈ 3.06 µg/mL). Moreover, the IC50 on hTRPV3 (setting [3]) was 19.8 nM; at hTRPV3 (setting [4]), 10 to 100 nM.
The like results for `Cc1ccccc1Oc1ccc(C2CCN(Cc3ncccc3Cl)C2)c(CO)c1` (centres unmarked) [Compound 2-86] were, in that order, roughly 2.2 µM (≈ 0.9 µg/mL), 226 nM and 100 to 1000 nM.
As for `OCc1cc(-c2ccccc2)ncc1N1CC[C@H](Oc2ccc(C(F)(F)F)cn2)C1` [Compound 1-158], the solubility at 40 min in data set [2] was roughly 2 µM (≈ 0.831 µg/mL). The IC50 on hTRPV3 (setting [4]) was 100 to 1000 nM; on hTRPV3 (setting [5]), 773 nM; at hTRPV3 (setting [6]) it was 100 to 1000 nM; on hTRPV3 (setting [7]) it was 747 nM.
`NC(=O)c1ccccc1-c1ccc(N2CC[C@H](Oc3ccc(C(F)(F)F)cn3)C2)c(CO)c1` [Compound 1-159, (S)-3′-(hydroxymethyl)-4′-(3-(5-(trifluoromethyl)pyridin-2-yloxy)pyrrolidin-1-yl)biphenyl-2-carboxamide] had a solubility at 40 min in data set [2] greater than 16.6 µM. In addition, the IC50 at hTRPV3 (setting [4]) was greater than 1000 nM; on hTRPV3 (setting [5]) it was greater than 3200 nM; on hTRPV3 (setting [6]) it was greater than 1000 nM; on hTRPV3 (setting [7]) it was greater than 3200 nM.
